Literature values as cited in patent US10736937B2 (priority 2014, dated 2020).

System: Streptococcus pneumoniae
Conditions: mucosal administration; co-administrated with the pathogen or 2 to 24 h before bacterial challenge

flagellin
protection against Streptococcus pneumoniae lung infection: protect
